Results taken from patent publication US20120129842A1, “BISTHIAZOLE INHIBITORS OF PRO-MATRIX METALLOPROTEINASE ACTIVATION” (priority 2010, published 2012).
Where a name gives a salt, the structure may show the parent alone.

Tests used:
[1] = target: T1, proMMP9(20-445;ΔFnII) (SEQ ID NO:6) (Homo sapiens, UniProt P14780, DEL216-390); experiment: ThermoFluor binding assay with proMMP9(20-445;ΔFnII); details: pH 7.0
T1 construct: start methionine (N); made in house; host or cells: E. coli BL21(DE3) RIL
T1 sequence (P14780 with tags, fused parts or gaps DEL216-390): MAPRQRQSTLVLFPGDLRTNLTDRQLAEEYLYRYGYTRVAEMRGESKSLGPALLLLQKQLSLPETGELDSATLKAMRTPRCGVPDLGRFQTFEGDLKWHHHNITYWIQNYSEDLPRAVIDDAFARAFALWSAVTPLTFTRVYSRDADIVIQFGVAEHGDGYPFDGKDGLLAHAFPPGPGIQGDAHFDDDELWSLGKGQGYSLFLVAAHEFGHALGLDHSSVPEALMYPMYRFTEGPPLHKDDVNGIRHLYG
In short: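 proMMP9(20-445;ΔFnII) at 2.8 μM with 50 μM 1,8-ANS in 50 mM HEPES pH 7.0, 100 mM NaCl, 0.001% Tween-20, 2.5 mM MgCl2, 300 μM CaCl2; compounds serially diluted in DMSO. Heated 40–90 °C at 1 °C/min, fluorescence read at 500±25 nm. Tm fit by standard equations; binding fit using DSC/TF-derived thermodynamic parameters.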

[2] = target: T2, proMMP9(67-444;ΔFnII) (SEQ ID NO:5) (Homo sapiens, UniProt P14780, DEL216-390); experiment: ThermoFluor binding assay with proMMP9(67-444;ΔFnII); details: pH 7.0
T2 construct: start methionine (N); made in house; host or cells: E. coli BL21(DE3) RIL
T2 sequence (P14780 with tags, fused parts or gaps DEL216-390): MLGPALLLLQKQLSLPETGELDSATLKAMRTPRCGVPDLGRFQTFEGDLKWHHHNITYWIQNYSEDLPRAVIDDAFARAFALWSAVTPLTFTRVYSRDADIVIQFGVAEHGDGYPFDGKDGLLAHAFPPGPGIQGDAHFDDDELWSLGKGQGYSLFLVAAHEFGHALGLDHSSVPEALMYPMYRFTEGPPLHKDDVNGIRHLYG
In short: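 Thermal shift binding with 3.5 μM proMMP9(67-444;ΔFnII) and 50 μM 1,8-ANS in 50 mM HEPES pH 7.0, 100 mM NaCl, 2.5 mM MgCl2, 300 μM CaCl2, 0.001% Tween-20, with serially diluted compound. Heated 40 to 90° C at 1° C/min; fluorescence-derived Tm fitted using DSC/ThermoFluor thermodynamic parameters.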

[3] = target: T3, full-length proMMP9(1-707) (SEQ ID NO:1) (Homo sapiens, UniProt P14780, R574P); experiment: ProMMP9/MMP3 DQ Gelatin Activation Assay; format: biochemical; details: 20 nM proMMP9, 10 nM MMP3, DQ gelatin; read-out: ProMMP9/MMP3 DQ gel Activation Assay, IC50
T3 construct: made in house; host or cells: HEK293 (proMMP9, secreted); E. coli (MMP3)
Experimental: Compounds were assessed for inhibition of proMMP9 activation by catalytic MMP3 using a quenched fluorescein gelatin substrate (DQ gelatin, Invitrogen D12054) that fluoresces upon cleavage by activated MMP9. The assay buffer employed was 50 mM Hepes, pH 7.5, 10 mM CaCl2, 0.05% Brij-35. DMSO was included at a final concentration of 0.2%, arising from the test compound addition. […] Test compounds in DMSO were diluted 250-fold in assay buffer at 4× the final concentration. The reaction volume was 12 μL, and all reactions were conducted in triplicate. […] The plate was sealed and incubated for 30 min at 37° C. […] Immediately following the 30 min incubation, 4 μL of 40 μg/ml DQ gelatin substrate was added (freshly diluted in assay buffer), and incubated for 10 min at room temperature. The reaction was stopped by the addition of 4 μL of 50 mM EDTA, and the resulting activity associated with catalytic MMP9 was determined at 485 nm excitation, 535 nm emission using an Envision fluorescent reader (Perkin Elmer). Reactivity of residual MMP3 towards DQ gelatin was minimal under these conditions. Percent inhibition of test compounds were determined from suitable positive (DMSO only in assay buffer) and negative (EDTA added prior to reaction initiation) controls. Plots of % inhibition vs. test compound concentration were fit to a four-parameter logistics equation (GraphPad Prism® software) for determination of IC50.

[4] = target: T4, proMMP13(1-268) (SEQ ID NO:7) (Homo sapiens, UniProt P45452); experiment: ThermoFluor binding assay with proMMP13(1-268); set-up: 6xHis (C); made in house; details: pH 7.0
In short: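 Thermal shift binding with 3.5 μM protein and 25 μM 1,8-ANS in 50 mM HEPES pH 7.0, 100 mM NaCl, 0.001% Tween-20, 2.5 mM MgCl2, 300 μM CaCl2. Samples were heated 40 to 90 °C at 1 °C/min, fluorescence read at 500 nm. Tm shifts across an 11-point DMSO dilution series were fitted with DSC-derived thermodynamic parameters.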

[5] = target: T3, full-length proMMP9(1-707) (SEQ ID NO:1); experiment: proMMP9/MMP3 P126 Activation Assay; format: biochemical; details: 20 nM proMMP9, 20 nM MMP3, 80 min 37° C.
Experimental: The reaction volume was 50 μL. […] Reactivity of residual MMP3 towards P-126 substrate was minimal under these conditions.

[6] = target: T4, proMMP13(1-268) (SEQ ID NO:7); experiment: ProMMP13/Plasmin P126 Activation Assay; format: biochemical; set-up: 6xHis (C); made in house; host or cells: HEK293 (transient, secreted); details: 8 nM proMMP13, 16 nM plasmin, 40 min 37° C.
Experimental: On the day of assay, proMMP13(1-268) (SEQ ID NO:7) purified from HEK293 cells and plasmin were diluted to 160 nM and 320 nM, respectively, in assay buffer. The reaction volume was 50 μL. […] The plate was sealed and incubated for 40 min at 37° C. […] Plasmin was not reactive towards P-126 substrate under these conditions.

T3 sequence (P14780 20-707 R574P): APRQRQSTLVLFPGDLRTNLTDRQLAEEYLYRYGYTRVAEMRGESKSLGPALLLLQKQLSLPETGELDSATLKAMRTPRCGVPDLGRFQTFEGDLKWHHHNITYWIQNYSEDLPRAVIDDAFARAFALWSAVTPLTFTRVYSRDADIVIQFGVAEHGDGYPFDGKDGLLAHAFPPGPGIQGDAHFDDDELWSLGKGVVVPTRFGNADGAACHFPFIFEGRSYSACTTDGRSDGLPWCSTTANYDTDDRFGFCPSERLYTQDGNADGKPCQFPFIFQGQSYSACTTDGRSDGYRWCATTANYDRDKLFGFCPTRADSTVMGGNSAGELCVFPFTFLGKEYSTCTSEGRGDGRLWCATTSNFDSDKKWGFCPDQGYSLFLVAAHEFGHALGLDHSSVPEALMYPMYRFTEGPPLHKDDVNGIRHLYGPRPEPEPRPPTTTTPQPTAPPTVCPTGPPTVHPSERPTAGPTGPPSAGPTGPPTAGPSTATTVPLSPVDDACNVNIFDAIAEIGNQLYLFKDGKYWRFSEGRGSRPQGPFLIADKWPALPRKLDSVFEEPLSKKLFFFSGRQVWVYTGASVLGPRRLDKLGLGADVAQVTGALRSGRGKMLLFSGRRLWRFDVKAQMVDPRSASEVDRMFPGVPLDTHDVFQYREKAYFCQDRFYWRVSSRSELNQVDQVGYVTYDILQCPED

Kd [1]	Kd [2]	IC50 [3]	Kd [4]	IC50 [5]	IC50 [6]	SMILES
9.8 µM	1100 nM	9 µM	30 µM			COc1ccc(C)cc1Nc1nc(-c2sc(NC(C)=O)nc2C)cs1 [Example 11, N-[2-(2-Methoxy-5-methyl-phenylamino)-4′-methyl-[4,5′]bithiazolyl-2′-yl]-acetamide]
62 µM	16000 nM		6 µM	~6000 nM		COc1ccc(-c2cncn2C)cc1Nc1nc(-c2sc(C)nc2C)cs1 [Example 143, (2′,4′-Dimethyl-[4,5′]bithiazolyl-2-yl)-[2-methoxy-5-(3-methyl-3H-imidazol-4-yl)-phenyl]-amine]
1 µM	2000 nM		3.6 µM	1600 nM		Cc1nc(C)c(-c2csc(Nc3cc(S(N)(=O)=O)ccc3OC(F)(F)F)n2)s1 [Example 144, 3-(2′,4′-Dimethyl-[4,5′]bithiazolyl-2-ylamino)-4-trifluoromethoxy-benzenesulfonamide.HCl]
4.6 µM	1300 nM	5.9 µM				CC(=O)Nc1nc(C)c(-c2csc(Nc3cccc4cccnc34)n2)s1 [Example 146, N-[4′-Methyl-2-(quinolin-8-ylamino)-[4,5′]bithiazolyl-2′-yl]-acetamide.TFA]
12 µM	7600 nM	20 µM				COc1ncccc1Nc1nc(-c2sc(NC(C)=O)nc2C)cs1 [Example 147, N-[2-(2-Methoxy-pyridin-3-ylamino)-4′-methyl-[4,5′]bithiazolyl-2′-yl]-acetamide.TFA]
> 8 µM	> 8000 nM	6 µM				CC(=O)Nc1nc(C)c(-c2csc(Nc3cccnc3O)n2)s1 [Example 148, N-[2-(2-Hydroxy-pyridin-3-ylamino)-4′-methyl-[4,5′]bithiazolyl-2′-yl]-acetamide.HBr]
5 µM	4400 nM	27 µM	40 µM			CC(=O)Nc1nc(C)c(-c2csc(Nc3cccc4ccccc34)n2)s1 [Example 149, N-[4′-Methyl-2-(naphthalen-1-ylamino)-[4,5′]bithiazolyl-2′-yl]-acetamide.HCl]
0.16 µM	1300 nM		0.22 µM	1200 nM		CC(C)Oc1ccc(C(N)=O)cc1Nc1nc(-c2sc(N)nc2C(F)(F)F)cs1 [Example 150, 3-(2′-Amino-4′-trifluoromethyl-[4,5′]bithiazolyl-2-ylamino)-4-isopropoxy-benzamide]
				33 nM	860 nM	Cc1nc(C2CCN(C)CC2)sc1-c1csc(Nc2cc(C(N)=O)ccc2OC(C)C)n1 [Example 157, 4-Isopropoxy-3-((4′-methyl-2′-(1-methylpiperidin-4-yl)-[4,5′-bithiazol]-2-yl)amino)benzamide.TFA]
